Literature values in paper PMC12802961 (Journal of Antimicrobial Chemotherapy, 2025).
Where two headings read alike, the source gives them in different places.

Details: cited from earlier work

C[C@]1(Cn2ccnn2)[C@H](C(=O)O)N2C(=O)C[C@H]2S1(=O)=O [tazobactam]
Ct (threshold concentration) (ceftolozane/tazobactam): 0.5 mg/L

NC(=O)[C@@H]1CC[C@@H]2CN1C(=O)N2OS(=O)(=O)O [avibactam]
Ct (threshold concentration) (ceftazidime/avibactam): 1 mg/L
